{
  "source": "patent US5919768A",
  "about": "“Di- and trivalent small molecule selectin inhibitors” (Texas Biotechnology Corporation, priority 1998, dated 1999)",
  "key": {"P-selectin": {"molecular_target": "T1, P-selectin (Homo sapiens, UniProt P16109)", "T1 construct": "amino terminal lectin, EGF, and complement regulatory-like repeats (CR) 1 and 2; made in house; host or cells: SF21 insect cells, baculovirus (BakPAK)", "T1 sequence (P16109 42-321)": "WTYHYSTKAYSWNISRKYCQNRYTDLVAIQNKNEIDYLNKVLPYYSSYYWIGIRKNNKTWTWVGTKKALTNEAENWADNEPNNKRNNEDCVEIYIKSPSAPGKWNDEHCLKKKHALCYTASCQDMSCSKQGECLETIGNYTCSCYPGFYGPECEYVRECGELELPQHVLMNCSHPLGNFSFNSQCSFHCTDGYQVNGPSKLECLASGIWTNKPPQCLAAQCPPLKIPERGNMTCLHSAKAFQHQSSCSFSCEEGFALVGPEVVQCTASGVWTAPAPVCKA", "experiment": "Cell-protein assay: inhibition of binding of HL60 cells (expressing sialyl-Lewis^x) to P-selectin", "details": "HL60 cell binding to selectin fusion protein on magnetic beads", "protocol": "(§1) Compounds were assayed for their ability to inhibit the binding of E-, P-, and/or L-selectin to sialyl-Lewis^x.\n(§2) The E-selectin binding assays involved assessing the ability of HL60 cells that express sialyl-Lewis^x and Lewis^x to purified E-selectin, P-selectin and L-selectin recombinant proteins (cell-protein assay). A similar binding assay utilizing purified glycolipids and purified L-selectin recombinant protein (glycolipid-protein) was used to assess L-selectin binding.\n(§3) All selectin fusion cassettes were generated by PCR from the E-selectin cDNA purchased from R&D Systems (Minneapolis, Minn.), and from the P-selectin and L-selectin cDNAs that were PCR cloned from total RNA extracted from human placenta. The mouse IgG cDNA was cloned from PCR amplified cDNA generated from RNA extracted from the hybridoma cell line 402C10. All fusion cassettes were expressed from baculovirus vectors using the BakPAK method and SF21 cells purchased from Clonetech.\n(§4) Recombinant fusion proteins were purified from baculovirus infected culture supernatants by immunoprecipitation using Dynal™ goat anti-mouse IgG coated magnetic beads. Mock beads were generated from uninfected SF21 culture supernatants.\n(§5) HL60 cells (10^7 cells) were fluorescently labeled with calcein AMC-3099 (Molecular Probes) in RPMI 1640 with 10% fetal calf serum (FCS). The magnetic beads (7 μl, 4×10^6 beads/ml) were incubated in duplicate wells of a flexible 96 well microtiter plate along with 7 μl of compound at various concentrations and 7 μl of calcein-labeled HL60 cells. The plates were incubated for ten minutes at room temperature. The plate was then placed on a magnetic separator and incubated for 2 more minutes. While the assay plate remained on the separator, unbound HL60 cells were removed and the wells were washed twice with phosphate buffered saline (PBS) to remove any remaining unbound cells. The HL60 cells remaining bound to the beads were inspected by microscopy and then lysed by adding […] of a 1% solution of NP40 in PBS. Binding was quantitated fluorimetrically using a Millipore Cytofluor 2350 fluorimeter."}, "E-selectin": {"molecular_target": "T2, E-selectin (Homo sapiens, UniProt P16581)", "T2 construct": "amino terminal lectin, EGF, and complement regulatory-like repeats (CR) 1 and 2; made in house; host or cells: SF21 insect cells, baculovirus (BakPAK)", "T2 sequence (P16581 22-301)": "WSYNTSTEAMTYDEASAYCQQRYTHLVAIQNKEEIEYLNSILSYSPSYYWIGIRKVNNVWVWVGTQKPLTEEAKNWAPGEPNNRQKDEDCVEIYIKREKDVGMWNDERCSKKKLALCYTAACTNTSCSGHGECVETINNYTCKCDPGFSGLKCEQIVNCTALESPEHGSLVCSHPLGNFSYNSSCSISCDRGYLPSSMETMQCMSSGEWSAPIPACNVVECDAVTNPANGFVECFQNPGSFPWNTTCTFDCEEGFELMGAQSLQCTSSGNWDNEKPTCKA", "experiment": "Cell-protein assay: inhibition of binding of HL60 cells (expressing sialyl-Lewis^x) to E-selectin", "details": "for IC50: HL60 cell binding to selectin fusion protein on magnetic beads", "protocol": "as §1, §2, §3, §4, §5"}, "L-selectin": {"molecular_target": "T3, L-selectin (Homo sapiens, UniProt P14151)", "T3 construct": "amino terminal lectin, EGF, and complement regulatory-like repeats (CR) 1 and 2; made in house; host or cells: SF21 insect cells, baculovirus (BakPAK)", "T3 sequence (P14151 39-318)": "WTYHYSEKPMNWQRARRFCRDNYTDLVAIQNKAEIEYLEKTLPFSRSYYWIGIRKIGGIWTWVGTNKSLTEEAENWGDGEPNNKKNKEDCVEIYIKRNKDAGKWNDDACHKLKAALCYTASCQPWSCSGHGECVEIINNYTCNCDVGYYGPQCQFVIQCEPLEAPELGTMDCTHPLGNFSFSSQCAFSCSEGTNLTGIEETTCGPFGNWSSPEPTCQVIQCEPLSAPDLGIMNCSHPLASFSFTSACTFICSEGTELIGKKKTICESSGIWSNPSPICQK", "experiment": "Selectin binding assay: inhibition of binding of L-selectin to sialyl-Lewis^x (cell-protein; glycolipid-protein assay also mentioned)", "details": "for IC50: in vitro selectin assay", "protocol": "as §1, §2, §3, §4, §5"}},
  "data": [
    {"smiles": "O=C(O)Cc1cccc(-c2cc(C(=O)CCCCC(=O)c3ccc(O[C@H]4O[C@H](CO)[C@@H](O)[C@H](O)[C@@H]4O)c(-c4cccc(CC(=O)O)c4)c3)ccc2O[C@H]2O[C@H](CO)[C@@H](O)[C@H](O)[C@@H]2O)c1", "note": "[F]", "values": [
      {"measurement": "IC50", "setting": "P-selectin", "result": 1000, "unit": "µM"},
      {"measurement": "IC50", "setting": "E-selectin", "result": 1000, "unit": "µM"},
      {"measurement": "IC50", "setting": "L-selectin", "result": 3000, "unit": "µM"}
    ]},
    {"smiles": "O=C(O)Cc1cccc(-c2cc(CCCCc3ccc(O[C@H]4O[C@H](CO)[C@@H](O)[C@H](O)[C@@H]4O)c(-c4cccc(CC(=O)O)c4)c3)ccc2O[C@H]2O[C@H](CO)[C@@H](O)[C@H](O)[C@@H]2O)c1", "note": "[Compound A-4, 1,4-Bis-[3-(3-carboxymethylphenyl)-4-(2-α-D-mannopyranosyloxy)phenyl]butane]", "values": [
      {"measurement": "IC50", "setting": "L-selectin", "result": 2000, "unit": "µM"}
    ]},
    {"smiles": "O=C(O)Cc1cccc(-c2cc(CCCCCCCc3ccc(O[C@H]4O[C@H](CO)[C@@H](O)[C@H](O)[C@@H]4O)c(-c4cccc(CC(=O)O)c4)c3)ccc2O[C@H]2O[C@H](CO)[C@@H](O)[C@H](O)[C@@H]2O)c1", "note": "[Compound A-7]", "values": [
      {"measurement": "IC50", "setting": "P-selectin", "result": 400, "unit": "µM"},
      {"measurement": "IC50", "setting": "E-selectin", "result": 500, "unit": "µM"}
    ]},
    {"smiles": "O=C(O)Cc1cccc(-c2cc(CCCC(=O)N3CCC(CCCC4CCN(C(=O)CCCc5ccc(O[C@H]6O[C@H](CO)[C@@H](O)[C@H](O)[C@@H]6O)c(-c6cccc(CC(=O)O)c6)c5)CC4)CC3)ccc2O[C@H]2O[C@H](CO)[C@@H](O)[C@H](O)[C@@H]2O)c1", "note": "[G]", "values": [
      {"measurement": "IC50", "setting": "P-selectin", "result": 1000, "unit": "µM"},
      {"measurement": "inhibition at 3000 µM", "setting": "L-selectin; at 3 mM, read-out: L-Selectin % inhib.", "result": 0, "unit": "%"}
    ]},
    {"smiles": "O=C(O)Cc1cccc(-c2cc(Cc3cc(Cc4ccc(O[C@H]5O[C@H](CO)[C@@H](O)[C@H](O)[C@@H]5O)c(-c5cccc(CC(=O)O)c5)c4)cc(Cc4ccc(O[C@H]5O[C@H](CO)[C@@H](O)[C@H](O)[C@@H]5O)c(-c5cccc(CC(=O)O)c5)c4)c3)ccc2O[C@H]2O[C@H](CO)[C@@H](O)[C@H](O)[C@@H]2O)c1", "note": "[H]", "values": [
      {"measurement": "IC50", "setting": "P-selectin", "result": 200, "unit": "µM"},
      {"measurement": "IC50", "setting": "E-selectin", "result": 700, "unit": "µM"},
      {"measurement": "IC50", "setting": "L-selectin", "result": 500, "unit": "µM"}
    ]},
    {"smiles": "O=C(O)Cc1cccc(-c2cc(CCCSCCCSCCCc3ccc(O[C@H]4O[C@H](CO)[C@@H](O)[C@H](O)[C@@H]4O)c(-c4cccc(CC(=O)O)c4)c3)ccc2O[C@H]2O[C@H](CO)[C@@H](O)[C@H](O)[C@@H]2O)c1", "note": "[D]", "values": [
      {"measurement": "IC50", "setting": "P-selectin", "result": 500, "unit": "µM"},
      {"measurement": "inhibition at 2000 µM", "setting": "E-selectin; at 2 mM, read-out: E-Selectin % inhib.", "result": 29, "unit": "%"}
    ]},
    {"smiles": "O=C(O)Cc1cccc(-c2cc(Cc3ccc(Oc4ccc(Cc5ccc(O[C@H]6O[C@H](CO)[C@@H](O)[C@H](O)[C@@H]6O)c(-c6cccc(CC(=O)O)c6)c5)cc4)cc3)ccc2O[C@H]2O[C@H](CO)[C@@H](O)[C@H](O)[C@@H]2O)c1", "note": "[C]", "values": [
      {"measurement": "IC50", "setting": "P-selectin", "result": 700, "unit": "µM"},
      {"measurement": "inhibition at 2000 µM", "setting": "L-selectin; at 2 mM, read-out: L-Selectin % inhib.", "result": 0, "unit": "%"}
    ]},
    {"smiles": "O=C(O)Cc1cccc(-c2cc(CCCCCc3ccc(O[C@H]4O[C@H](CO)[C@@H](O)[C@H](O)[C@@H]4O)c(-c4cccc(CC(=O)O)c4)c3)ccc2O[C@H]2O[C@H](CO)[C@@H](O)[C@H](O)[C@@H]2O)c1", "note": "[Compound A-5]", "values": [
      {"measurement": "IC50", "setting": "P-selectin", "result": 300, "unit": "µM"},
      {"measurement": "IC50", "setting": "E-selectin", "result": 400, "unit": "µM"},
      {"measurement": "IC50", "setting": "L-selectin", "result": 300, "unit": "µM"}
    ]},
    {"smiles": "O=C(O)Cc1cccc(-c2cc(CCCCCCCCCc3ccc(O[C@H]4O[C@H](CO)[C@@H](O)[C@H](O)[C@@H]4O)c(-c4cccc(CC(=O)O)c4)c3)ccc2O[C@H]2O[C@H](CO)[C@@H](O)[C@H](O)[C@@H]2O)c1", "note": "[Compound A-9]", "values": [
      {"measurement": "IC50", "setting": "P-selectin", "result": 1000, "unit": "µM"},
      {"measurement": "IC50", "setting": "E-selectin", "result": 1000, "unit": "µM"}
    ]},
    {"smiles": "O=C(O)Cc1cccc(-c2cc(C(=O)CSCc3cc(CSCC(=O)c4ccc(O[C@H]5O[C@H](CO)[C@@H](O)[C@H](O)[C@@H]5O)c(-c5cccc(CC(=O)O)c5)c4)cc(CSCC(=O)c4ccc(O[C@H]5O[C@H](CO)[C@@H](O)[C@H](O)[C@@H]5O)c(-c5cccc(CC(=O)O)c5)c4)c3)ccc2O[C@H]2O[C@H](CO)[C@@H](O)[C@H](O)[C@@H]2O)c1", "note": "[J]", "values": [
      {"measurement": "IC50", "setting": "E-selectin", "result": 4000, "unit": "µM"},
      {"measurement": "IC50", "setting": "L-selectin", "result": 2000, "unit": "µM"}
    ]},
    {"smiles": "O=C(O)Cc1cccc(-c2cc(Cc3cccc(Cc4ccc(O[C@H]5O[C@H](CO)[C@@H](O)[C@H](O)[C@@H]5O)c(-c5cccc(CC(=O)O)c5)c4)c3)ccc2O[C@H]2O[C@H](CO)[C@@H](O)[C@H](O)[C@@H]2O)c1", "note": "[B-m]", "values": [
      {"measurement": "IC50", "setting": "P-selectin", "result": 220, "unit": "µM"},
      {"measurement": "inhibition at 1000 µM", "setting": "E-selectin; at 1 mM, read-out: E-Selectin % inhib.", "result": 0, "unit": "%"},
      {"measurement": "IC50", "setting": "L-selectin", "result": 3000, "unit": "µM"}
    ]},
    {"smiles": "O=C(O)Cc1cccc(-c2cc(Cc3ccc(Cc4ccc(O[C@H]5O[C@H](CO)[C@@H](O)[C@H](O)[C@@H]5O)c(-c5cccc(CC(=O)O)c5)c4)cc3)ccc2O[C@H]2O[C@H](CO)[C@@H](O)[C@H](O)[C@@H]2O)c1", "note": "[B-p]", "values": [
      {"measurement": "IC50", "setting": "P-selectin", "result": 2000, "unit": "µM"},
      {"measurement": "IC50", "setting": "E-selectin", "result": 2000, "unit": "µM"},
      {"measurement": "IC50", "setting": "L-selectin", "result": 3000, "unit": "µM"}
    ]},
    {"smiles": "O=C(O)COc1cccc(-c2cc(CCCCCCc3ccc(O[C@H]4O[C@H](CO)[C@@H](O)[C@H](O)[C@@H]4O)c(-c4cccc(OCC(=O)O)c4)c3)ccc2O[C@H]2O[C@H](CO)[C@@H](O)[C@H](O)[C@@H]2O)c1", "note": "[E]", "values": [
      {"measurement": "IC50", "setting": "P-selectin", "result": 540, "unit": "µM"},
      {"measurement": "IC50", "setting": "E-selectin", "result": 3270, "unit": "µM"},
      {"measurement": "IC50", "setting": "L-selectin", "result": 1400, "unit": "µM"}
    ]}
  ]
}
